From US20070117864A1, “Composition for preventing and treating hepatoma” (Tokyo University of Agr. & Tech. TLO Co., Ltd., priority 2003, published 2007)
Marks after values point to notes of the source that are not given here.

Legend:
[1] = liver lipid levels in hepatoma-bearing rats; assay type: in vivo, rat; settings: mean ± SEM of 11 rats
Description: Male Donryu rats of four weeks old were purchased from NRC Haruna, Gumma, Japan, and were preliminarily fed for 6 days in quintuple cages in a room with a controlled environment with light period of 8:00 to 20:00, room temperature of 22±1° C., and relative humidity of 60±5%. For the first 3 days, the animals were fed ad libitum with a stock pellet diet (CE-2; CLEA Japan, Tokyo), and for the next 3 days, they were fed a basal diet containing 20% milk casein (20C) (Table 1) ad libitum together with tap water in a glass container. Following the completion of this preparatory raising, the rats were divided into three groups (11 animals per group) with equal average body weights of the respective groups were equal, and 1.0×10^7 of AH109A cells suspended in PBS (−) were transplanted in the back of all the rats. From the time immediately after transplantation, in the respective experimental groups, the animals were fed the experimental diets shown in Table 2.
During the experimental period, the body weight, food intake and solid tumor size (sum of length, width and height) were measured everyday. On the day that the animals were killed, animals were deprived of experimental diets at 9:00, but freely given water until they were killed 4 hours later. Blood was collected from carotid, and the liver and solid tumors were excised. The collected blood was allowed to stand for approximately 2 hours at room temperature, and then centrifuged for 10 minutes at 3000 rpm (1750×g), 4° C., to obtain serum. This blood serum was frozen and stored at −20° C. The livers and solid tumors were washed with physiological saline, blotted on filter paper, and weighed. Furthermore, feces from the 19th to 21st days after transplantation were collected, and these feces were frozen and stored at −20° C. for the measurement of the amounts of steroids excreted from the body.
Total lipids were extracted from the liver for the measurement of lipid levels by the method of Folch et al. (FOLCH J, LEES M, SLOAN-STANLEY G H, A simple method for the isolation and purification of total lipids from animal tissues, J. Biol. Chem. 226: 497-509, 1957). Approximately 0.5 g of liver tissue was weighed out, this tissue was homogenized using a Polytron homogenizer (Type PT10/35, Kinematica, Switzerland) in 5 ml of methanol; then, 10 ml of chloroform was added and mixed, the resulting preparation was allowed to stand overnight, and then filtered. […]
The Ch content was measured by the Zak method (Zak B., Simple rapid microtechnic for serum total cholesterol, Am. J. Clin. Path. 27, 583-588, 1957). […] The resulting mixture was agitated and this preparation was allowed to stand until cool; then, the absorbance at 560 nm thereof was measured with Ch as a standard. […]

[2] = serum lipid levels in hepatoma-bearing rats; assay type: in vivo, rat; settings: for Serum lipid level (VLDL + LDL)-Cholesterol (B): difference between T-Ch and HDL-Ch; for Serum lipid level (VLDL + LDL)-Cholesterol (B) / AI (B/A), atherogenic index / Serum lipid level HDL-Cholesterol (A) / Serum lipid level Total Cholesterol / Serum lipid level Triglyceride: mean ± SEM of 11 rats
Description: Male Donryu rats of four weeks old were purchased from NRC Haruna, Gumma, Japan, and were preliminarily fed for 6 days in quintuple cages in a room with a controlled environment with light period of 8:00 to 20:00, room temperature of 22±1° C., and relative humidity of 60±5%. For the first 3 days, the animals were fed ad libitum with a stock pellet diet (CE-2; CLEA Japan, Tokyo), and for the next 3 days, they were fed a basal diet containing 20% milk casein (20C) (Table 1) ad libitum together with tap water in a glass container. Following the completion of this preparatory raising, the rats were divided into three groups (11 animals per group) with equal average body weights of the respective groups were equal, and 1.0×10^7 of AH109A cells suspended in PBS (−) were transplanted in the back of all the rats. From the time immediately after transplantation, in the respective experimental groups, the animals were fed the experimental diets shown in Table 2. During the experimental period, the body weight, food intake and solid tumor size (sum of length, width and height) were measured everyday. On the day that the animals were killed, animals were deprived of experimental diets at 9:00, but freely given water until they were killed 4 hours later. Blood was collected from carotid, and the liver and solid tumors were excised. The collected blood was allowed to stand for approximately 2 hours at room temperature, and then centrifuged for 10 minutes at 3000 rpm (1750×g), 4° C., to obtain serum. This blood serum was frozen and stored at −20° C. The livers and solid tumors were washed with physiological saline, blotted on filter paper, and weighed. Furthermore, feces from the 19th to 21st days after transplantation were collected, and these feces were frozen and stored at −20° C. for the measurement of the amounts of steroids excreted from the body. Serum cholesterol (Ch) and triglyceride (TG) concentration was measured. Total cholesterol (T-Ch) level, the high-density-lipoprotein (HDL-Ch) level (which is the supernatant fraction obtained by precipitating very-low-density-lipoprotein+low-density-lipoprotein ((VLDL+LDL)-Ch fractions) by the precipitation method using phosphotungstic acid were measured. The (VLDL+LDL)-Ch level was taken as the difference between the T-Ch and the HDL-Ch levels. Atherogenic index (AI: (VLDL+LDL)-Ch/HDL-Ch ratio) was calculated as an index of atherogenesis.

[3] = ENL diet groups versus control diet group

Compound: O=C1OCC(Cc2cccc(O)c2)C1Cc1cccc(O)c1 (centres unmarked) [Enterolactone, enterolactone]
- Liver lipid level Total cholesterol ([1]; diet 10 ppm): 5.15 ± 0.43 μmol/g liver
- Liver lipid level Triglyceride ([1]; diet 10 ppm): 43.8 ± 3.83 μmol/g liver
- Liver lipid level Total cholesterol ([1]; diet 100 ppm): 5.47 ± 0.40 μmol/g liver
- Liver lipid level Triglyceride ([1]; diet 100 ppm): 42.8 ± 7.05 μmol/g liver
- (VLDL+LDL)-Ch in the blood serum [2, 3]: decreased significantly in a dose-dependent manner
- AI value, ratio of (VLDL+LDL)-Ch to HDL-Ch [2, 3]: tendency to decrease
- HDL-Ch in the blood serum ([2]; ENL diet groups versus control diet group, not significant): tendency increase
- Serum lipid level (VLDL + LDL)-Cholesterol (B) ([2]; diet 10 ppm): 0.68 ± 0.12^b mmol/L
- AI (B/A), atherogenic index ([2]; diet 10 ppm): 0.48 ± 0.09
- Serum lipid level HDL-Cholesterol (A) ([2]; diet 10 ppm): 1.45 ± 0.07 mmol/L
- Serum lipid level Total Cholesterol ([2]; diet 10 ppm): 2.13 ± 0.14 mmol/L
- Serum lipid level Triglyceride ([2]; diet 10 ppm): 0.98 ± 0.06 mmol/L
- Serum lipid level (VLDL + LDL)-Cholesterol (B) ([2]; diet 100 ppm): 0.67 ± 0.08^b mmol/L
- AI (B/A), atherogenic index ([2]; diet 100 ppm): 0.41 ± 0.05
- Serum lipid level HDL-Cholesterol (A) ([2]; diet 100 ppm): 1.63 ± 0.06 mmol/L
- Serum lipid level Total Cholesterol ([2]; diet 100 ppm): 2.30 ± 0.12 mmol/L
- Serum lipid level Triglyceride ([2]; diet 100 ppm): 0.93 ± 0.06 mmol/L
